# Laboratory results from ChEMBL document CHEMBL1932938, “From COX-2 inhibitor nimesulide to potent anti-cancer agent: synthesis, in vitro, in vivo and pharmacokinetic evaluation” (Eur J Med Chem, 2012).
# What was measured:
# SK-BR-3 = assay: cells; details: Homo sapiens, SK-BR-3, 48 h
# [1] = Solubility of the compound; assay type: physicochemical
IC50 (SK-BR-3),solubility [1],SMILES
> 100 µM,–,Cc1ccc(C)c(COc2cc(NC(=O)Cc3ccccc3)ccc2N(C)S(C)(=O)=O)c1
34 µM,–,COc1ccc(CC(=O)Nc2ccc(N(C)S(C)(=O)=O)c(OCc3cc(C)ccc3C)c2)cc1OC
–,Insoluble,CCCCCCCCCCCCCCCC(=O)Nc1ccc(N(C)S(C)(=O)=O)c(OCc2cc(C)ccc2C)c1
